1 compound from patent US20160143944A1, “ANTIMICROBIAL COMPOSITIONS COMPRISING HYPOCHLOROUS ACID AND SILVER” (PURICOE, INC., priority 2013, published 2016) can be followed below.

The subject of the test is Pseudomonas aeruginosa biofilm. The experiment in a line: in vitro wound biofilm model (collagen matrix), biocidal effect. It counts as cell-based. Conditions: 20 min at 35° C., 24 h biofilm in collagen matrix. As to the method:
A biofilm test was conducted using hypochlorous acid solutions containing either 200 ppm or 600 ppm AFC. A solution containing a […] combination of silver chelate (30 ppm) and hypochlorous acid (600 ppm) which yielded a final concentration of 200 ppm AFC was also tested. Specifically, the biocidal effects of the solutions were tested using an in vitro wound biofilm model as described in […] et al. (2009), Molnlycke Healthcare. Briefly, a collagen solution was prepared in simulated wound fluid and the collagen was allowed to polymerize at 35° C. for one hour. The collagen matrix was subsequently innoculated with approximately 10^4 colony forming units (CFU) of Pseudomonas aeruginosa and incubated for twenty-four hours. The hypochlorous acid solutions were added to each matrix and incubated at 35° C. for twenty minutes. The tubes were centrifuged to separate the test solutions from the matrices. Subsequently, each matrix was digested with collagenase, washed and any surviving cells were recovered. A biofilm test was conducted to compare the biocidal effects of various hypochlorous acid solutions with or without silver additives, either in form of potassium silver citrate or silver chelate. Specifically, the effects of the solutions on P. aeruginosa biofilm were assessed using an in vitro wound biofilm model as described above. […]

Consider `OCl` [hypochlorous acid solution, hypochlorous acid], for which the “log reduction of P. aeruginosa colony forming units (CFU)” value runs as follows: (200 ppm AFC hypochlorous acid solution) “one”; (600 ppm AFC hypochlorous acid solution) “seven”.
